US20090192101A1, “CANCER-SPECIFIC PROMOTERS” (priority 2006, published 2009)

How the values were obtained:
[1] = test system: human normal and cancer cells; assay: Transient luciferase assay, promoter activity compared to CMV promoter; format: cell-based; conditions: electroporation, 24 hrs
Procedure: The activities of claudin 4 and fatty acid synthase promoters were compared to CMV promoter. […] 1×10^6 cells were transfected with 2 μg pGl3-claudin 4 luciferase vector, as well as 0.2 μg pRL-TK as internal standards by electroporation. The luciferase activity was measured after 24 hrs. The activities of claudin 4 and fatty acid synthase promoters were much weaker than that of CMV promoter, and were about 0.5% and 5% of CMV expression activity, respectively.

breast cancer cell lines = assay: Transient luciferase assay of promoter activity (electroporation, 24 hrs); format: cell-based, human; conditions: breast cancer cell lines such as T47D, MDA-MB-435, 2 μg vector
Procedure: (§1) Cells (1×10^6) were transfected with 2 μg pGl3-FASN-luciferase vector, as well as 0.2 μg pRL-TK as internal standards by electroporation. The luciferase activity was measured after 24 hrs.
(§2) In FIG. 2, the promoter activities of tight junction protein Claudin 4 in human normal and cancer cells is shown. Cells (1×10^6) were transfected with 2 μg pGl3-claudin 4 luciferase vector, as well as 0.2 μg pRL-TK as internal standards by electroporation. The luciferase activity was measured after 24 hrs.
(§3) Cells (1×10^6) were transfected with 2 μg VISA-claudin 4 or VISA-fatty acid synthase promoter vector, as well as 0.2 μg pRL-TK as internal standards by electroporation. The luciferase activity was measured after 24 hrs.
(§4) 1×10^6 cells were transfected with 2 μg pGl3-FASN-luciferase vector, as well as 0.2 μg pRL-TK as internal standards by electroporation. The luciferase activity was measured after 24 hrs. […]
(§5) Expression of claudin 4 promoter was ascertained in breast cancer cell lines, normal cell lines, and other cancer cell lines by transient luciferase assay. […] The luciferase activity was measured after 24 hrs. […]
(§6) 1×10^6 cells were transfected with 2 μg pGL3-VISA-Claudin4-Luc or pGL3-VISA-FASN-Luc plasmid, as well as 0.2 μg pRL-TK as internal standards by electroporation. The luciferase activities were measured 24 hrs after transient transfection. […]

[2] = test system: normal and other cancer cell lines; assay: as above; format: cell-based, human; conditions: 2 μg vector
Procedure: as §1, §2, §3, §4, §5, §6

## FASN promoter: fatty acid synthase promoter driving luciferase in pGl3 vector
[1]
  promoter activity as % of CMV expression activity: ~5%
Breast cancer cell lines
  promoter activity (luciferase) in breast cancer cell lines: highly expressed
[2]
  promoter expression (luciferase) in normal and other cancer cell lines: low
